Laboratory results reported in article PMC5789847, “Bismuth antimicrobial drugs serve as broad-spectrum metallo-β-lactamase inhibitors” (Nature Communications, 2018).
Values joined by “and” are separate entries in the source; they are usually repeats but may differ in a detail not shown here. Equal entries are not always repeated.

Key:
[1] = biological target: IMP-4; assay: IC50 enzyme inhibition assay; assay type: biochemical; conditions: IMP-4 50 nM, 1 h preincubation, MER substrate
Procedure: (§1) Freshly prepared 50 nM of Zn2-NDM-1, Zn2-VIM-2, or Zn2-IMP-4 in 50 mM HEPES/Na pH 7.0, 100 mM NaCl were first incubated with various concentrations of CBS for 1 h at 25 °C, then mixed with equal volume of 0.2 mM MER. The assay was performed in a 1 cm quartz cuvette using the kinetic mode on a Varian Cary50 UV-visible spectrophotometer at 25 °C. The decrease in absorbance at 300 nm due to ring-opening of MER was monitored every second for a duration of 10 min until the reaction was completed. The initial rates were extracted and calculated from each reaction curves for fitting IC50 curves.

[2] = tested on: NDM-HK (NDM-1^+); assay: microbe, parasite or virus in culture; assay type: cell-based, E. coli; conditions: NDM-HK; for FICI: MER + compound, 256 µg mL^-1 set as MIC of Bi(III), 128 for Bi(NAC)3
Procedure: (§2) MIC values were determined by standard broth micro-dilution method (Clinical and Laboratory Standards Institute (CLSI) M100-S20, 2010)[64]. Briefly, bacterial cells were cultured in LB broth overnight at 37 °C at 250 rpm and the OD was measured at 600 nm (OD600). The bacterial density was adjusted to about 1 × 10^6 CFU mL^−1 and checked by CFU counting on agar plates afterwards. Tested antibiotics or Bi(III) compounds were added triplicately into individual wells of flat-bottomed 96-well plates and performed 2-fold serial dilution, followed by addition of prepared bacterial inocula. The plate was then incubated at 37 °C for overnight. […] The MIC was determined as the lowest concentration of a drug that could inhibit the growth of microorganism by both visual reading and OD reading at 600 nm using a microtiter plate reader.
(§3) Resulting growth (or lack of growth) was examined after overnight culturing and the lowest concentration that inhibits 99.9% of the original culture was taken as MBC.
(§4) Other procedures were kept strictly the same. […] Synergism was defined when FICI ≤ 0.5, indifference was defined when FICI > 0.5 and < 4, and antagonism was defined when FICI≥4[65]. […] All of the determinations were performed at least in triplicate on different days.

[3] = tested on: IMP-BL21 (IMP-4^+); assay: microbe, parasite or virus in culture; assay type: cell-based, E. coli; conditions: IMP-BL21
Procedure: as §2, §3, §4

[4] = tested on: VIM-BL21 (VIM-2^+); assay: microbe, parasite or virus in culture; assay type: cell-based, E. coli; conditions: VIM-BL21; for FICI: MER + compound, 256 µg mL^-1 set as MIC of Bi(III)
Procedure: as §2, §3, §4

[5] = biological target: T1, NDM-1 (Klebsiella pneumoniae, UniProt C7C422); assay type: biochemical; conditions: NDM-1 50 nM, 1 h preincubation, MER substrate
Procedure: as §1
Target sequence in this assay (C7C422 29-270, looked up, species assumed): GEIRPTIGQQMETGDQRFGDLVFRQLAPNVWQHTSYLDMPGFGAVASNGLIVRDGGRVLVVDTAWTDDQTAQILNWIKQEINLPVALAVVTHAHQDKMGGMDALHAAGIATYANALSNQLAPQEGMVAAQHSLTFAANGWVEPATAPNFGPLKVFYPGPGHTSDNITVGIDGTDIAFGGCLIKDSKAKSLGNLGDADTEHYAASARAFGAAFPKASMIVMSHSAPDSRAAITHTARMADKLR

[6] = biological target: VIM-2 (Escherichia coli, UniProt Q5U7L7); assay type: biochemical; conditions: VIM-2 50 nM, 1 h preincubation, MER substrate
Procedure: as §1

[7] = tested on: NDM-K. pneumonia (NDM-1^+); assay: Microdilution MIC/MBC and checkerboard assay; assay type: cell-based, Klebsiella pneumonia; conditions: for MBC of MER in combination with compound at 32 µg mL^-1 / MIC of MER in combination with compound at 32 µg mL^-1: NDM-K. pneumonia (NDM-KP)
Procedure: as §2, §3, §4

[8] = tested on: NDM-C. freundii (NDM-1^+); assay: Microdilution MIC/MBC and checkerboard assay; assay type: cell-based, Citrobacter freundii; conditions: for MBC of MER in combination with compound at 32 µg mL^-1 / MIC of MER in combination with compound at 32 µg mL^-1: NDM-C. freundii (NDM-CF)
Procedure: as §2, §3, §4

[9] = biological target: NDM-1-C208A (Klebsiella pneumoniae, UniProt C7C422, C208A); assay: Bi(III) binding capacity by ICP-MS
NDM-1-C208A, sequence (C7C422 29-270 C208A): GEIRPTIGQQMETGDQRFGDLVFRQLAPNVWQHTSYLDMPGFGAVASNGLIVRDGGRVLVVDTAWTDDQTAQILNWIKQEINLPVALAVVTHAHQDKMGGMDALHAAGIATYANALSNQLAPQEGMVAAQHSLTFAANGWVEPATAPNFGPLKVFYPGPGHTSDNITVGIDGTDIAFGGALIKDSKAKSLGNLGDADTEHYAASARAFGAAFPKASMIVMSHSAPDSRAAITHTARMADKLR
Procedure: To monitor the displacement of Zn(II) by Bi(III), ICP-MS was employed to accurately quantify ^209Bi and ^66Zn contents in various purified NDM-1 samples. Purified Zn-bound-NDM-1 (20 μM) dissolved in trace-metal-free ICP-MS buffer containing 50 mM HEPES, pH 7.0, was incubated with various concentrations of CBS at 25 °C for 5 h with mild shaking. The samples were subsequently dialyzed in ICP-MS buffer to remove unbound-metal ions and were then acidified and subsequently analyzed using an ICP-MS spectrometer (Agilent 7500a, Agilent Technologies, CA, USA) with ^115In as an internal standard for ^209Bi, ^66Zn, and ^34S contents, which are used to quantify protein concentration.

[10] = biological target: T1, NDM-1; assay: Zinc supplementation assay; assay type: biochemical; conditions: supplementation of 2 molar equivalents of Zn(II); Bi-NDM-1 prepared with CBS
Procedure: To investigate whether bismuth inhibits the enzyme reversibly, enzyme activities of Bi-NDM-1 and apo-NDM-1 were compared upon the supplementation of Zn(II). Bi-bound NDM-1 (50 nM) was prepared by pre-incubation of apo-bound NDM-1 with CBS for 2 h at 25 °C, followed by removal of unbound Bi(III) and the bound Bi was verified by ICP-MS. The above protein solutions were mixed with ZnSO4 at concentration up to 2 molar equivalents to NDM-1 and 100 µM MER. The change in absorbance at 300 nm was monitored on a Varian Cary 50 UV-visible spectrophotometer at 25 °C for calculation of reaction rates. Reaction rate of apo-NDM-1 with addition of 2 molar equivalents of ZnSO4 was normalized to 1. The metal content of Bi-bound NDM-1 treated with Zn(II) was measured and analyzed by ICP-MS as described in the previous section.
Target sequence in this assay (C7C422 29-270, looked up, species assumed): as the sequence (C7C422 29-270, looked up, species assumed) above

[11] = biological target: T1, NDM-1; assay type: biochemical
Target sequence in this assay (C7C422 29-270, looked up, species assumed): as above
Procedure: NDM-1 (50 nM) was incubated with Bi(NIT)3 (0.5, 1.0, and 1.5 µM) for 1 h at 25 °C with gentle shaking. The assay was performed in a 96-well microplate reader at 298 K. The final assay buffer contains 50 mM HEPES at pH 7.0, 100 mM NaCl, with MER as the substrate ranging from 10 to 150 µM. Control experiment was also performed in the absence of inhibitors under the same conditions. The Km and Vmax for both the uninhibited and inhibited reactions were obtained by fitting the data into the double reciprocal Lineweaver–Burk plots.

[12] = tested on: NDM-HK
Procedure: Metal salts used for the screening involved bismuth nitrate (Bi(III)), gallium nitrate (Ga(III)), sodium stibogluconate (Sb(V)), chromium chloride (Cr(III)), cobalt chloride (Co(II)), nickel chloride (Ni(II)), ruthenium chloride (Ru(II)), and copper sulfate (Cu(II)). Briefly, different concentrations (10, 50, and 200 μM) of metal compounds were added to LB medium containing 8 μg mL^−1 of MER in 96-well plates. About 2 × 10^6 CFU mL^−1 logarithmic cultures of NDM-HK were added to each well of the plates and co-incubated for overnight. The growth inhibition of bacteria was monitored by OD reading at 600 nm and serial dilution in LB agar plate. Wells with no antibiotics or metal compounds served as growth controls, and wells with no bacteria added served as background controls. Each test was performed in triplicate. The inhibition was calculated as [1−(ODsample−ODbackground)/(ODcontrol−ODbackground)] ×100%. CFU was counting by 10-fold serial dilution in PBS and 10 μL was spotted in LB agar plate.

[13] = biological target: T1, NDM-1; assay type: cell-based; design: endogenous in cells; host or cells: E. coli clinical isolate NDM-HK; conditions: NDM-HK cultured with 100 µM compound; control 50.1 °C
Procedure: The cellular thermal shift assay was performed according to a standard method. Clinical isolate of NDM-1-positive E. coli (NDM-HK) was cultured overnight in the absence or presence of 100 µM Bi(III) compounds, i.e., CBS, Bi(NAC)3, Bi(NIT)3. The bacterial pellets were harvested and washed with PBS for 4 times. The cell suspensions were aliquoted into PCR tubes and heat treatment was performed at the designated temperature ranging from 40 °C to 70 °C for 3 min in a 96-well thermal cycler. The tubes were cooled immediately at room temperature for another 3 min after heating and the heating procedures were repeated for three cycles. For the cell lysis, the samples were frozen–thawed for two cycles in liquid nitrogen and thermal cycler set at 25 °C. The samples were vortexed gently after each cycle and were centrifuged at 20,000 × g to obtain the supernatant when the second cycle was finished. All the samples were subjected to western blot analysis for detection and quantification of NDM-1 content as described above.
Target sequence in this assay (C7C422 29-270 limits assumed): as the sequence (C7C422 29-270, looked up, species assumed) above

## CC(C)([S][Bi+][S]C(C)(C)C(N)C(=O)O)C(N)C(=O)O (centres unmarked) [Bi(PCM)2]
[1]
  IC50: 1000 ± 370 nM
[2]
  MBC of Bi(III) compound/inhibitor alone: > 256 µg/mL
  MBC of MER in combination with compound at 32 µg mL^-1: 2 µg/mL
  MIC of Bi(III) compound/inhibitor alone: > 256 µg/mL
  MIC of MER in combination with compound at 32 µg mL^-1: 2 µg/mL
  FICI: 0.313
[3]
  MBC of MER in combination with compound at 32 µg mL^-1: 2 µg/mL
  MIC of MER in combination with compound at 32 µg mL^-1: 1 µg/mL
[4]
  MBC of Bi(III) compound alone: > 256 µg/mL
  MBC of MER in combination with compound at 32 µg mL^-1: 2 µg/mL
  MIC of Bi(III) compound alone: > 256 µg/mL
  MIC of MER in combination with compound at 32 µg mL^-1: 1 µg/mL
  FICI: 0.093
[5]
  IC50: 2800 ± 110 nM
[6]
  IC50: 3710 ± 1190 nM
[7]
  MBC of MER in combination with compound at 32 µg mL^-1: 8 µg/mL
  MIC of MER in combination with compound at 32 µg mL^-1: 2 µg/mL
[8]
  MBC of MER in combination with compound at 32 µg mL^-1: 2/2 µg mL^-1
  MIC of MER in combination with compound at 32 µg mL^-1: 2/2 µg mL^-1

## [Bi+3] [Bi(III)]
[9]
  Bi(III) bound to the mutant: ca. 0.25 molar equivalents
[10]
  activity restored for Bi-bound NDM-1: about 20%
[11]; Bi(III) 1.5 µM (as Bi(NIT)3), 0.900 at 0 µM
  apparent Vmax: 0.365 µM/s

## O=[N+]([O-])[O-].O=[N+]([O-])[O-].O=[N+]([O-])[O-].[Bi+3] [Bi(NIT)3, bismuth nitrate]
[12]; MER 8 μg mL-1 + metal compound 10 μM
  colony-forming unit (CFU) counting on agar plate after serial dilutions: no colony was observed
[12]; metal compound 10, 50, 200 µM with MER at ½MIC (8 μg mL^−1), 24 h
  growth inhibition based on optical density (OD) reading: > 90%
[1]
  IC50: 990 ± 190 nM
[2]
  MBC of Bi(III) compound/inhibitor alone: > 256 µg/mL
  MBC of MER in combination with compound at 32 µg mL^-1: 4 µg/mL
  MIC of Bi(III) compound/inhibitor alone: > 256 µg/mL
  MIC of MER in combination with compound at 32 µg mL^-1: 2 µg/mL
  FICI: 0.266
[3]
  MBC of MER in combination with compound at 32 µg mL^-1: 8 µg/mL
  MIC of MER in combination with compound at 32 µg mL^-1: 4 µg/mL
[3]; MER + compound, 256 µg mL^-1 set as MIC of Bi(III)
  FICI: 0.250
[4]
  MBC of MER in combination with compound at 32 µg mL^-1: 2 µg/mL
  MIC of MER in combination with compound at 32 µg mL^-1: 1 µg/mL
  FICI: 0.063
[5]
  IC50: 700 ± 130 nM
[6]
  IC50: 1200 ± 130 nM
[13]
  NDM-1 melting temperature, treated group: 48.1 °C
[7]
  MBC of MER in combination with compound at 32 µg mL^-1: 1 µg mL^-1 and 1/1 µg mL^-1
  MIC of MER in combination with compound at 32 µg mL^-1: 1 µg mL^-1 and 1/1 µg mL^-1
[7]; NDM-KP
  MBC of Bi(III) compound alone: > 256 µg/mL
  MIC of Bi(III) compound alone: > 256 µg/mL
[7]; NDM-KP, MER + compound, 256 µg mL^-1 set as MIC of Bi(III)
  FICI: 0.125
[8]
  MBC of MER in combination with compound at 32 µg mL^-1: 4 µg/mL
  MIC of MER in combination with compound at 32 µg mL^-1: 2 µg/mL
[8]; NDM-CF
  MBC of Bi(III) compound alone: > 256 µg/mL
  MIC of Bi(III) compound alone: > 256 µg/mL
[8]; NDM-CF, MER + compound, 256 µg mL^-1 set as MIC of Bi(III)
  FICI: 0.375
[11]; MER substrate 10 to 150 µM
  inhibition mode (Lineweaver Burk plot): either a non-competitive or an irreversible inhibition mode
